Reference: PubChem BioAssay AID1996
Converted amounts (≈) assume the structure as drawn.

Details: buffer; pH 7.4; 200.0 µM

SMILES	solubility kinetic [µg/mL]
CC(NC(=O)Cc1ccsc1)c1ccc(F)cc1 (stereo not drawn)	> 39.5
CN1C(=O)C2C3c4ccccc4C(c4ccccc43)[C@@H]2C1=O (stereo partly drawn)	2 (≈ 6.91 µM)
CC(=O)CC(=O)C1C(=O)N(C)C(=O)N(C)C1=O	> 36
O=[N+]([O-])c1ccc(NCCc2ccccc2)c(Br)c1	0.7 (≈ 2.18 µM)
Cc1ccc2cc(C#N)c(N3CCN(C(=O)c4cccs4)CC3)nc2c1	< 0.2
COC(=O)[C@H](Cc1ccccc1)NC(=O)N1CCCCCC1	> 45.7
CC(=O)Nc1ccc2c(c1)CCc1ccccc1-2	3.9 (≈ 16.4 µM)
Cc1cc(F)c(F)c(C(=O)N2C(C)CCCC2C)c1Cl (stereo not drawn)	14.5 (≈ 48.1 µM)
COc1ccccc1CNC(=O)COC(=O)c1cc2ccccc2o1	3.8 (≈ 11.2 µM)
Cc1cc(N2CCOCC2)nc(SCC(=O)OCc2ccccc2)n1	> 53.9
Cc1c(C(=O)N2CCOCC2)oc2ccccc12	> 36.8
O=C(CCc1c[nH]c2ccccc12)N1CCCC1	> 36.3
COC(=O)c1cn(CC(=O)Nc2ccc(F)cc2)c2ccccc12	< 0.3
O=C(Nc1cccc(S(=O)(=O)N2CCOCC2)c1)C12CC3CC(CC(C3)C1)C2	2.2 (≈ 5.44 µM)
Cc1ccc(S(=O)(=O)NC2CC(C)(C)NC(C)(C)C2)cc1C	> 48.7
O=C(COC(=O)COc1ccc(Cl)cc1)NC1CC1	> 42.6
C=CCNC(=S)NNC(=O)C(CC(C)C)CC(C)O (stereo not drawn)	> 43.1
CC(=O)Nc1ccc(SCC(=O)NCC2(N3CCCCC3)CCCCC2)cc1	> 60.5
CCC(C(=O)OC)n1cnc2c(oc3ccccc32)c1=O (stereo not drawn)	> 42.9
Cc1ccccc1NC1=NC2(CCCC2)N=C(N)N1	28.3 (≈ 110 µM)
Cc1ccc(NC(=O)CN2CCOCC2)cc1Cl	> 40.3
Cc1ccc(NC(=O)CCNC(=O)c2ccc(Cl)cc2)cc1C	1.7 (≈ 5.14 µM)
CCN(CC)CCn1c(NC(=O)c2ccccc2O)nc2ccccc21	18.5 (≈ 52.5 µM)
Cc1cc(NC(=O)Cn2cnc3sc(C)c(C)c3c2=O)no1	17.3 (≈ 54.3 µM)

SMILES	solubility kinetic [µg/mL]
CCC(NC(=O)C1CCCO1)c1ccccc1 (stereo not drawn)	> 35
CN(C)c1ccc(C(=O)C(=O)c2ccccc2)cc1	10.8 (≈ 42.6 µM)
CC1CCN(C(=O)CN(c2cccc(F)c2)S(C)(=O)=O)CC1	> 49.3
CN(CC(=O)Nc1cccc(F)c1)C(=O)c1ccc(N2CCOCC2)c([N+](=O)[O-])c1	33.7 (≈ 80.9 µM)
COc1ccc(C(=O)ON=C2CCN(C)CC2)cc1.Cl	> 44.8
O=C(/C=C/N1CCN(Cc2ccccc2)CC1)C(F)(F)F	> 44.7
O=C1Cc2ccccc2C(=O)N1c1cccc(Cl)c1	> 40.8
O=C(c1ccc([N+](=O)[O-])cc1)N1CCN(c2ncccn2)CC1	46.3 (≈ 148 µM)
CC(C)c1ccc(CNc2ncccn2)cc1.O=C(O)C(=O)O	31.3
O=C(CSCc1ccc(Cl)cc1)NCCSCc1ccco1	36.3 (≈ 102 µM)
O=C(NCCCNC(=O)c1cc(Cl)ccc1Cl)c1ccco1	44.3 (≈ 130 µM)
O=C(Nc1ccc2oc(=O)ccc2c1)c1ccc2ccccc2c1	< 0.7
CCCOc1ccc(CC(=O)NCCc2ccccc2)cc1OC	20.3 (≈ 62 µM)
CSCCC(NC(=O)c1cccc(C)c1)C(=O)NCc1cccs1 (stereo not drawn)	> 54.4
CC(C)OC(=O)CSc1nc(C(C)C)nc2ccccc12	2.1 (≈ 6.9 µM)
NS(=O)(=O)c1ccc(NC(=O)CSc2nc3ccccc3c(=O)n2Cc2ccncc2)cc1	8 (≈ 16.6 µM)
COc1cc(CC(=O)Nc2nc(C)cs2)cc(OC)c1OC	42.9 (≈ 133 µM)
CC1=C(C#N)C2(O)C(=O)c3ccccc3C2(O)N1 (stereo not drawn)	> 36.3
Cc1nnc(NC(=O)C(C)Sc2nnc(-c3ccco3)n2C)s1 (stereo not drawn)	> 52.6
COc1ccc(CC(C)NCCc2ccc(OC)c(OC)c2)cc1 (stereo not drawn)	48.7 (≈ 148 µM)
CCOC(=O)C1CCN(C(=O)CC2(CC(=O)O)CCCC2)CC1	45.5 (≈ 140 µM)
Cc1ccc(NC(=O)Cn2c(=O)oc3ccccc32)c(C)c1	13.9 (≈ 46.9 µM)
Cc1cc(C)nc(NC(=O)c2ccc(Cl)cc2Cl)n1	42 (≈ 142 µM)
O=C(CCCn1cnc([N+](=O)[O-])n1)Nc1cccc(O)c1	> 43.7

SMILES	solubility kinetic [µg/mL]
Cc1cc(/C=C\c2ccccc2)nc2ccccc12	< 0.5
O=C(O)Cn1c(-c2ccccn2)nc2ccccc21	> 38
Cc1cc(=O)oc2c(CN3CCCC3)c(O)c(Cl)cc12	> 44.1
CCCNC(=O)CN1C(=O)NC(CC)(c2ccc(F)cc2)C1=O (stereo not drawn)	> 48.2
COCCNC(=O)/C(C#N)=C/c1cccc(OCc2ccccc2)c1	21.2 (≈ 63 µM)
O=C(O)c1ccccc1NC(=O)c1ccccc1-c1ccccc1C(=O)O	> 54.2
CCCN1CCc2c(sc3nc(SC)n(-c4ccccc4)c(=O)c23)C1	33.9 (≈ 91.2 µM)
COc1ccc(C(CNC(=O)c2cc(S(=O)(=O)N3CCN(c4ccccc4)CC3)ccc2Cl)N(C)C)cc1 (stereo not drawn)	49.4 (≈ 88.7 µM)
CCNC(=O)CC1C(=O)N(c2ccc(C)cc2)C(=O)N1CCC(C)C (stereo not drawn)	> 51.8
O=C(c1ccncc1)c1ccc(NC(=O)c2cccs2)cc1	45.9 (≈ 149 µM)
O=C(OCC(=O)N1CCCC1)c1cc(F)c(F)cc1Cl	45.3 (≈ 149 µM)
CC(C)Oc1ccccc1NC(=O)CSc1nccn1C	> 45.8
CCOC(=O)Nc1ccc(N2CCOCC2)c(S(=O)(=O)Nc2ccc(Cl)cc2)c1	7.8 (≈ 17.7 µM)
Cc1onc(-c2ccccc2)c1C(=O)Nc1nncs1	> 42.9
COC(=O)c1ccc(C2Nc3cccc4cccc(c34)N2)cc1	3.5 (≈ 11.5 µM)
CN1C(=O)/C(=C/c2ccc(O)c([N+](=O)[O-])c2)N(C)C1=S	4.5 (≈ 15.3 µM)
Cc1cccc(C)c1NC(=O)c1cccc(C(=O)Nc2c(C)cccc2C)n1	27.7 (≈ 74.2 µM)
COc1ccc(NC(=O)c2cc3cc(OC)ccc3oc2=O)cc1	< 0.7
C/C(=C\c1ccccc1)CN1CCN(Cc2ccc(C)o2)C(CCO)C1 (stereo not drawn)	42.2 (≈ 119 µM)
CCOc1ccc(S(=O)(=O)NCCC(=O)N2CCC(Cc3ccccc3)CC2)cc1	12.8 (≈ 29.7 µM)
Cc1ccc(NC(=O)N2CCc3ccccc3C2)c(C)c1	5.4 (≈ 19.3 µM)
Cc1ccc(C(=O)NC(=S)N2CCCC2)cc1	> 37.3
O=C(COC(=O)/C=C/c1cccc(F)c1)NC1CCCCCC1	5.6 (≈ 17.5 µM)
Cc1ccc(CCC(=O)Nc2ccc([N+](=O)[O-])cc2)o1	30.9 (≈ 113 µM)

SMILES	solubility kinetic [µg/mL]
CC(NC(=O)NC(=O)c1ccc(Cl)cc1)c1ccccc1 (stereo not drawn)	0.4 (≈ 1.32 µM)
O=C(NCCc1cccc(Cl)c1)c1ccc2c(c1)OCO2	5.8 (≈ 19.1 µM)
CCC(=O)c1cn(CCOc2ccccc2OC)c2ccccc12	2.2 (≈ 6.8 µM)
COc1ccc(NC(=O)CCOc2ccc(C)cc2)c(OC)c1	29.6 (≈ 93.9 µM)
CN(C)NC(=O)c1csnc1-c1c(Cl)cccc1Cl	> 47.4
O=C(CNC(=O)c1ccc(Cl)cc1Cl)OCCOc1ccccc1F	51.2 (≈ 133 µM)
CC(=O)N1c2ccc(Cl)cc2C2OCCC2C1c1ccco1 (stereo not drawn)	42.2 (≈ 133 µM)
Cc1cccc(NC(=O)Nc2cccnc2)c1C	> 36.2
CC(=O)c1ccc(N2CCN(C(=O)c3ccc4[nH]c(C)c(C)c4c3)CC2)cc1	1.6 (≈ 4.26 µM)
CCN(CC)CCNC(=O)c1cc(S(C)(=O)=O)ccc1OC.Cl	52.5
O=C(COC(=O)Cc1ccccc1)NCc1ccc2c(c1)OCO2	> 49.1
CN(C)CCOC1c2ccccc2C=Cc2ccccc21.O=C(O)/C=C\C(=O)O	> 59.3
O=C(c1ccc(Br)cc1)C12CN3CN(CN(C3)C1)C2	> 48.3
O=C(Nc1ccc2ccccc2n1)c1ccccc1Cl	1.1 (≈ 3.89 µM)
Nc1cc(N2CCCC2)c(Cl)cc1[N+](=O)[O-]	3 (≈ 12.4 µM)
O=C(NC(=S)Nc1ncccn1)c1ccc(F)cc1	7.3 (≈ 26.4 µM)
N#CCc1ccc(NC(=O)Nc2cccc3ccccc23)cc1	0.6 (≈ 1.99 µM)
COc1ccccc1N(CC(=O)N1CCCC1)S(=O)(=O)c1cc([N+](=O)[O-])ccc1Cl	6.8 (≈ 15 µM)
O=C(Nc1cccc2cccnc12)c1ccc(Cl)cc1Cl	< 0.3
CCOc1ccc(CN(C)C(=O)c2ccc(=O)[nH]c2)cc1	29.3 (≈ 102 µM)
CCNC(=O)COC(=O)c1cc(C)n(-c2ccccc2)c1C	> 45.1
O=C(COC(=O)CCC(=O)c1ccc(F)cc1)Nc1ccc(Cl)cn1	21.1 (≈ 57.8 µM)
COc1ccc(OC)c(C(C)NC(=O)C23CC4CC(CC(C4)C2)C3)c1 (stereo not drawn)	0.8 (≈ 2.33 µM)
Nc1nc(SCC(=O)O)[nH]c(=O)c1NC(=O)c1ccco1	> 46.5

SMILES	solubility kinetic [µg/mL]
Cc1cc(NC(=O)c2ccco2)sc1C	> 33.2
CCOc1ccc(C2NC(=O)CCC2[N+](=O)[O-])cc1 (stereo not drawn)	> 39.6
CC1CCCCC12NC(=O)N(CC(=O)Nc1ccc(OC(F)F)cc1)C2=O (stereo not drawn)	18.2 (≈ 47.7 µM)
Cn1cnc2cc(NCc3ccccc3O)ccc21	36.9 (≈ 146 µM)
Cc1cc(C(=O)OCC(=O)NC(C)C)c2ccccc2n1	> 42.9
O=C(CNC(=O)c1ccccc1F)N/N=C/c1cccs1	> 45.8
Cl.Clc1ccc2sc(C3CCNCC3)nc2c1	43.3
COc1ccccc1CNC(=O)C(Cc1ccccc1)NC(=O)c1ccccc1 (stereo not drawn)	12.8 (≈ 33 µM)
Nc1ccc2c(c1)C(=O)c1ccccc1-2	27.9 (≈ 143 µM)
O=C(O)c1ccc(N2CCc3ccccc32)c([N+](=O)[O-])c1	> 42.6
Cc1nc(C(F)(F)F)ccc1C(=O)Nc1ccccc1N1CCOCC1	50.8 (≈ 139 µM)
CCOC(=O)/C(=C\c1ccccc1)NC(=O)c1ccccc1	> 44.3
COC(=O)c1sccc1NC(=O)Nc1cccc(C(C)=O)c1	19.1 (≈ 60 µM)
Cc1ccsc1/C=N/N1CCOCC1	> 31.5
CC(NC(=O)c1cccs1)c1ccc(Br)cc1 (stereo not drawn)	3.8 (≈ 12.2 µM)
O=[N+]([O-])c1ccc(N2CCOCC2)cc1N1CCCCC1	> 43.7
Cc1ccccc1N1C(=O)c2ccccc2C1O (stereo not drawn)	35.8 (≈ 150 µM)
COCC(=O)N1CCCC(C(=O)c2ccc(C(F)(F)F)cc2)C1 (stereo not drawn)	> 49.4
Cc1cccc(NC(=O)CN(CC2CCCO2)C(=O)c2cc(S(=O)(=O)N(C)C)ccc2F)c1C (stereo not drawn)	> 73.7
O=C(Nc1cccc([N+](=O)[O-])c1)Nc1cccs1	32.3 (≈ 123 µM)
COC(=O)c1sccc1NC(=O)CC1NCCNC1=O (stereo not drawn)	42.1 (≈ 142 µM)
COc1cc(C(=O)NC2CC(C)(C)NC(C)(C)C2)cc(OC)c1OC	> 52.6
